Results published in patent publication US8008262B2, “β-peptides” (Yale University, priority 2004, dated 2011).
Read-outs that look alike come from different tables or passages of the source.

How the values were obtained:
hDM21-188 (hDM2) [1] = biological target: T1, hDM21-188 (hDM2) (Homo sapiens, UniProt Q00987); test: Competition fluorescence polarization (cFP) assay, inhibition of p53AD^Flu·hDM2 complexation; format: binding
hDM21-188 (hDM2) [2] = biological target: T1, hDM21-188 (hDM2); test: Direct fluorescence polarization binding of fluorescein-labeled ligands to hDM2
[3] = Circular dichroism: extent of 14-helix structure in aqueous buffer; format: physicochemical; settings: initial CD comparison of β53-1D and β53-1
CREB KID·CBP KIX complex = CREB KID·CBP KIX complex (Homo sapiens, UniProt Q92793); test: Inhibition of formation of the unrelated CREB KID·CBP KIX complex; format: binding; settings: specificity control
CREB KID·CBP KIX complex, sequence (Q92793 587-666 limits assumed, one chain of several): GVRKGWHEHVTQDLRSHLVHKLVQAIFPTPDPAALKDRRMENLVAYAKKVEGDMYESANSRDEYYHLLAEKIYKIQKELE

[4] = Analytical ultracentrifugation, oligomeric state; format: physicochemical
IZN17 [5] = test: Direct fluorescence polarization binding to gp41 model IZN17; parameters: species or system HIV; settings: fluorescein-labeled ligand, direct FP; read-out: equilibrium affinity (Kd) for IZN17
IZN17 [6] = test: Competition fluorescence polarization, inhibition of C14wt^Flu·IZN17 complexation; parameters: species or system HIV; settings: read-out: IC50, competition with C14wt^Flu for IZN17 binding
[7] = test system: HeLa-CD4-LTR-β-gal cells and CHO-SEC cells; test: Cell-fusion assay (syncitia formation), gp41 mediated fusion; format: cell-based, HIV-1; settings: read-out: EC50, inhibition of cell-cell-fusion
carbonic anhydrase II = carbonic anhydrase II (Homo sapiens, UniProt P00918); settings: read-out: Kd for carbonic anhydrase II
calmodulin = calmodulin (Homo sapiens, UniProt P0DP23); settings: read-out: Kd for calmodulin
[8] = read-out: IC50, inhibition of p53AD^Flu·hDM2 interaction
[9] = read-out: binding affinity (Kd) for hDM2
[10] = competition FP, unlabeled ligand
[11] = fluorescein-labeled ligand, read-out: Kd, apparent equilibrium dissociation constant of complexes between fluorescein-labeled ligands and hDM2
[12] = concentrations between 80 and 400 μM

T1 sequence (Q00987 1-188 limits assumed): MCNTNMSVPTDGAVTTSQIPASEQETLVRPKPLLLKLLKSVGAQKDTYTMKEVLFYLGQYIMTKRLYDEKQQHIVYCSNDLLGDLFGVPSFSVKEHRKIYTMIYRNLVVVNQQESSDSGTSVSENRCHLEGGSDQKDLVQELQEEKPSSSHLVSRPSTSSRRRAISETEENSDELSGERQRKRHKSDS

In the case of `CC[C@H](C)[C@@H](CC(=O)N[C@H](CC(=O)N[C@@H](CCC(=O)O)CC(=O)N[C@H](CC(=O)N[C@H](CC(=O)N[C@@H](CCCN)CC(=O)N[C@H](CC(=O)N[C@H](CC(=O)N[C@@H](CCC(=O)O)CC(=O)O)Cc1ccccc1)[C@@H](C)CC)Cc1c[nH]c2ccccc12)[C@@H](C)CC)CC(C)C)NC(=O)C[C@@H](N)CCCN` [Hit 1], the IC50 (hDM21-188 (hDM2) [1]; [8]) is reported as 13 ± 1 µM and the Kd (hDM21-188 (hDM2) [2]; [9]) is reported as 0.055 ± 0.008 µM.
`CC[C@H](C)[C@@H](CC(=O)N[C@H](CC(=O)N[C@@H](CCC(=O)O)CC(=O)N[C@H](CC(=O)N[C@H](CC(=O)N[C@@H](CCCN)CC(=O)N[C@H](CC(=O)N[C@H](CC(=O)N[C@@H](CCC(=O)O)CC(=O)O)Cc1ccccc1)C(C)C)Cc1c[nH]c2ccccc12)[C@@H](C)CC)CC(C)C)NC(=O)C[C@@H](N)CCCN` [Hit 2] showed an IC50 (hDM21-188 (hDM2) [1]; [8]) of 11 ± 1 µM and a Kd (hDM21-188 (hDM2) [2]; [9]) of 0.089 ± 0.02 µM.
Work on `CC(C)C[C@@H](CC(=O)N[C@@H](CCC(=O)O)CC(=O)N[C@H](CC(=O)N[C@H](CC(=O)N[C@@H](CCCN)CC(=O)N[C@H](CC(=O)N[C@H](CC(=O)N[C@@H](CCC(=O)O)CC(=O)O)Cc1ccccc1)C(C)C)Cc1c[nH]c2ccccc12)C(C)C)NC(=O)C[C@@H](NC(=O)C[C@@H](N)CCCN)C(C)C` [β53-1] yielded a mean residue ellipticity [3] of −8450.4 deg·cm^2·dmol^−1, an IC50 (hDM21-188 (hDM2) [1]; [10]) of 94.5 ± 4.4 µM and a Kd (hDM21-188 (hDM2) [2]; [11]) of 0.37 ± 0.08 µM. The “inhibition of formation of CREB KID·CBP KIX complex” value (CREB KID·CBP KIX complex) was “failed to inhibit”, the oligomeric state ([4]; at concentrations exceeding 1 mM) was “monomeric” and the oligomeric state [4, 12] was “monomeric”.
For `CC(C)C[C@@H](CC(=O)N[C@H](CC(=O)N[C@@H](CCC(=O)O)CC(=O)N[C@H](CC(=O)N[C@H](CC(=O)N[C@@H](CCCN)CC(=O)N[C@H](CC(=O)N[C@H](CC(=O)N[C@@H](CCC(=O)O)CC(=O)O)C(C)C)Cc1ccccc1)C(C)C)Cc1c[nH]c2ccccc12)C(C)C)NC(=O)C[C@@H](N)CCCN` [β53-3], the IC50 (hDM21-188 (hDM2) [1]) was 1590 ± 104 µM and the oligomeric state [4, 12] was “monomeric”.
Molecule `CC(C)C[C@H](N)CC(=O)N[C@@H](CCC(=O)O)CC(=O)N[C@H](CC(=O)N[C@H](CC(=O)N[C@@H](CCCN)CC(=O)N[C@H](CC(=O)N[C@H](CC(=O)N[C@@H](CCC(=O)O)CC(=O)O)Cc1ccccc1)C(C)C)Cc1c[nH]c2ccccc12)C(C)C` [β53-5] has an IC50 (hDM21-188 (hDM2) [1]; [10]) of 80.8 ± 3.2 µM.
With `CC(C)[C@H](N)CC(=O)N[C@H](CC(=O)N[C@@H](CCCN)CC(=O)N[C@H](CC(=O)N[C@H](CC(=O)N[C@@H](CCC(=O)O)CC(=O)O)Cc1ccccc1)C(C)C)Cc1c[nH]c2ccccc12` [β53-6] the “IC50 fold better than β53-1 and β53-5” value (hDM21-188 (hDM2) [1]) was “over 2 fold” and the IC50 (hDM21-188 (hDM2) [1]; [10]) was 36.2 ± 2.6 µM.
With `CC(C)[C@H](N)CC(=O)N[C@H](CC(=O)N[C@@H](CCC(=O)O)CC(=O)NCCC(=O)O)Cc1c[nH]c2ccccc12` [β53-7, reference compound] the IC50 (hDM21-188 (hDM2) [1]; competition FP) was > 1000 µM.
With `CC(C)C[C@@H](CC(=O)N[C@@H](CCC(=O)O)CC(=O)N[C@H](CC(=O)N[C@H](CC(=O)N[C@@H](CCCN)CC(=O)N[C@H](CC(=O)N[C@H](CC(=O)N[C@@H](CCC(=O)O)CC(=O)O)Cc1ccccc1)C(C)C)Cc1c[nH]c2ccccc12)C(C)C)NC(=O)[C@H]1CCCC[C@@H]1NC(=O)C[C@@H](N)CCCN` [β53-AC2] the IC50 (hDM21-188 (hDM2) [1]; unlabeled ligand) was 15.5 ± 1 µM, the Kd (hDM21-188 (hDM2) [2]; [11]) was 0.21 ± 0.04 µM and the oligomeric state [4] was “no evidence of oligomerization”.
With `CC(C)C[C@@H](CC(=O)N[C@@H](CCC(=O)O)CC(=O)N[C@H]1CCCC[C@@H]1C(=O)N[C@H](CC(=O)N[C@@H](CCCN)CC(=O)N[C@H](CC(=O)N[C@H](CC(=O)N[C@@H](CCC(=O)O)CC(=O)O)Cc1ccccc1)C(C)C)Cc1c[nH]c2ccccc12)NC(=O)C[C@@H](NC(=O)C[C@@H](N)CCCN)C(C)C` [β53-AC5] the IC50 (hDM21-188 (hDM2) [1]; unlabeled ligand) was 60.3 ± 3.8 µM, the Kd (hDM21-188 (hDM2) [2]; [11]) was 0.21 ± 0.04 µM and the oligomeric state [4] was “discrete higher-order oligomers, likely hexamers or heptamers”.
With `CC(C)C[C@@H](CC(=O)N[C@@H](CCC(=O)O)CC(=O)N[C@H](CC(=O)N[C@H](CC(=O)N[C@@H](CCCN)CC(=O)N[C@H]1CCCC[C@@H]1C(=O)N[C@H](CC(=O)N[C@@H](CCC(=O)O)CC(=O)O)Cc1ccccc1)Cc1c[nH]c2ccccc12)C(C)C)NC(=O)C[C@@H](NC(=O)C[C@@H](N)CCCN)C(C)C` [β53-AC8] the IC50 (hDM21-188 (hDM2) [1]; unlabeled ligand) was 10.5 ± 0.8 µM, the Kd (hDM21-188 (hDM2) [2]; [11]) was 0.22 ± 0.06 µM and the oligomeric state [4] was “could indicate a monomer-dimer equilibrium at low millimolar concentrations”.
For `CC(C)C[C@@H](CC(=O)N[C@@H](CCC(=O)O)CC(=O)N[C@H]1CCCC[C@@H]1C(=O)N[C@H](CC(=O)N[C@@H](CCCN)CC(=O)N[C@H]1CCCC[C@@H]1C(=O)N[C@H](CC(=O)N[C@@H](CCC(=O)O)CC(=O)O)Cc1ccccc1)Cc1c[nH]c2ccccc12)NC(=O)[C@H]1CCCC[C@@H]1NC(=O)C[C@@H](N)CCCN` [β53-ACtrip], the IC50 (hDM21-188 (hDM2) [1]; unlabeled ligand) was 17.2 ± 1.3 µM, the Kd (hDM21-188 (hDM2) [2]; [11]) was 0.17 ± 0.05 µM and the oligomeric state [4] was “discrete higher-order oligomers, likely hexamers or heptamers”.
Work on `CC(C)[C@@H](CC(=O)N[C@H](CC(=O)N[C@@H](CCC(=O)O)CC(=O)O)Cc1ccccc1)NC(=O)C[C@H](CCCN)NC(=O)C[C@H](C)NC(=O)C[C@@H](NC(=O)C[C@H](CCC(=O)O)NC(=O)C[C@H](C)NC(=O)C[C@@H](NC(=O)C[C@@H](N)CCCN)C(C)C)C(C)C` [β53-F9] yielded an IC50 (hDM21-188 (hDM2) [1]; [10]) of 1700 ± 163 µM.
For `CC(C)C[C@@H](CC(=O)N[C@@H](CCC(=O)O)CC(=O)N[C@H](CC(=O)N[C@@H](C)CC(=O)N[C@@H](CCCN)CC(=O)N[C@H](CC(=O)N[C@@H](C)CC(=O)N[C@@H](CCC(=O)O)CC(=O)O)C(C)C)C(C)C)NC(=O)C[C@@H](NC(=O)C[C@@H](N)CCCN)C(C)C` [β53-L3], the IC50 (hDM21-188 (hDM2) [1]; [10]) was > 7000 µM.
In the case of `CC(C)[C@@H](CC(=O)N[C@H](CC(=O)N[C@@H](CCCN)CC(=O)N[C@H](CC(=O)N[C@@H](C)CC(=O)N[C@@H](CCC(=O)O)CC(=O)O)C(C)C)Cc1c[nH]c2ccccc12)NC(=O)C[C@H](CCC(=O)O)NC(=O)C[C@H](C)NC(=O)C[C@@H](NC(=O)C[C@@H](N)CCCN)C(C)C` [β53-W6], the “IC50 value fold higher than that of β53-1” value (hDM21-188 (hDM2) [1]) is reported as 2 fold and the IC50 (hDM21-188 (hDM2) [1]; [10]) is reported as 198 ± 10 µM.
Work on `CC[C@H](C)[C@@H](CC(=O)N[C@@H](CCC(=O)O)CC(=O)N[C@H](CC(=O)N[C@H](CC(=O)N[C@@H](CCCN)CC(=O)N[C@H](CC(=O)N[C@H](CC(=O)N[C@@H](CCC(=O)O)CC(=O)O)Cc1c[nH]c2ccccc12)C(C)C)Cc1c[nH]c2ccccc12)C(C)C)NC(=O)C[C@@H](NC(=O)C[C@@H](N)CCCN)C(C)C` [βWWI-1] yielded a Kd (IZN17 [5]) of 0.75 ± 0.1 µM, an IC50 (IZN17 [6]) of 4 ± 0.7 µM and an EC50 [7] of 27 ± 2.5 µM. The Kd (carbonic anhydrase II) was ≥ 115 µM and the Kd (calmodulin) was ≥ 100 µM.
Work on `CC[C@H](C)[C@@H](CC(=O)N[C@H](CC(=O)N[C@@H](CCC(=O)O)CC(=O)N[C@H](CC(=O)N[C@H](CC(=O)N[C@@H](CCCN)CC(=O)N[C@H](CC(=O)N[C@H](CC(=O)N[C@@H](CCC(=O)O)CC(=O)O)C(C)C)Cc1c[nH]c2ccccc12)C(C)C)Cc1c[nH]c2ccccc12)C(C)C)NC(=O)C[C@@H](N)CCCN` [βWWI-2] yielded a Kd (IZN17 [5]) of 1 ± 0.3 µM, an IC50 (IZN17 [6]) of 4.6 ± 0.4 µM and an EC50 [7] of 15 ± 1.6 µM.
In the case of `CC[C@H](C)[C@@H](CC(=O)N[C@H](CC(=O)N[C@@H](CCC(=O)O)CC(=O)O)C(C)C)NC(=O)C[C@H](CCCN)NC(=O)C[C@@H](NC(=O)C[C@H](Cc1c[nH]c2ccccc12)NC(=O)C[C@H](CCC(=O)O)NC(=O)C[C@@H](NC(=O)C[C@H](Cc1c[nH]c2ccccc12)NC(=O)C[C@@H](N)CCCN)C(C)C)C(C)C` [βWWI-3], the Kd (IZN17 [5]) is reported as 2.4 ± 0.7 µM, the IC50 (IZN17 [6]) is reported as 13 ± 4.1 µM and the EC50 [7] is reported as 13 ± 1.9 µM.
In the case of `CC[C@H](C)[C@@H](CC(=O)N[C@@H](CCC(=O)O)CC(=O)O)NC(=O)C[C@@H](NC(=O)C[C@H](CCCN)NC(=O)C[C@H](Cc1c[nH]c2ccccc12)NC(=O)C[C@@H](NC(=O)C[C@H](CCC(=O)O)NC(=O)C[C@H](Cc1c[nH]c2ccccc12)NC(=O)C[C@@H](NC(=O)C[C@@H](N)CCCN)C(C)C)C(C)C)C(C)C` [βWWI-4], the Kd (IZN17 [5]) is reported as 1.5 ± 0.4 µM, the IC50 (IZN17 [6]) is reported as 3.3 ± 1.4 µM and the EC50 [7] is reported as 5.3 ± 0.5 µM.
In the case of `N[C@H](CC(=O)O)Cc1c[nH]c2ccccc12` [β^3W, β^3-homotyptophan, reference compound], the IC50 (hDM21-188 (hDM2) [1]; competition FP) is reported as > 1000 µM.
